# Values joined by “and” are separate entries in the source; they are usually repeats but may differ in a detail not shown here. Equal entries are not always repeated. Where two headings read alike, the source gives them in different places.
# Experiments:
# [1] = 16-day body weight and gain:feed (Example 2); assay type: in vivo, chicken (Peterson X Arbor Acre cockerels); conditions: D3 […], derivatives 10 μg/kg feed
# Procedure: The basal diet used is described above in Table 2. Disulfiram was added to the basal diet of some chickens as indicated in Table 10 at a level of 30 mg/kg of feed. […]
# tibial dyschondroplasia [2] = assay type: in vivo, chicken (Peterson X Arbor Acre cockerels); conditions: D3 […], derivatives 10 μg/kg feed
# Procedure: Deep irregularities are apparent.
# (§1) The basal diet used is described above in Table 2. Disulfiram was added to the basal diet of some chickens as indicated in Table 10 at a level of 30 mg/kg of feed.
# (§2) After the tibia was scored for incidence and severity of tibial dyschondroplasia, the left tibia was removed for a bone ash determination on the fat-free dried bone.
# bone ash [3] = experiment: bone ash (Example 2); assay type: in vivo, chicken (Peterson X Arbor Acre cockerels); conditions: in words
# Procedure: as §1, §2
# ^47 Ca retention = experiment: 47Ca absorption and retention (Example 2); assay type: in vivo, chicken (Peterson X Arbor Acre cockerels); set-up: key to ^47 Ca intercept / Ca^47 Ret.: % of administered 47Ca retained (y-intercept of retention-vs-days plot); conditions: for ^47 Ca intercept / ^47 Ca slope: Study 2
# Procedure: Absorption and retention of dietary calcium was measured by orally dosing chicks with ^47 Ca and then measuring the total body radioactive count, as described in Suso and Edwards, "A Study of Techniques for Measuring ^65 Zn Absorption and Biological Half-life in the Chicken," Poult. Sci. 47:991-999 (1968). Specifically, ten seven day old birds in one pen under the indicated dietary treatments were dosed orally with 0.5 milliliter of water solution containing 0.5 microcuries of ^47 Ca and 0.1 to 1.0 micrograms of calcium. The total body radioactive content of the individual chickens was determined immediately following dosing, and also on days 7, 9, 12 and 14 following dosing. A plot of percent administered ^47 Ca which was retained versus number of days yields a line which has a slope corresponding to the half-life of the radioactive calcium in the chicken, and a y-intercept that corresponds to the amount of calcium absorbed by the chicken. Effect of vitamin D3 derivatives on Tibial Dyschondroplasia.
# tibial dyschondroplasia [4] = conditions: cited from earlier work
# bone ash [5] = experiment: bone ash of left tibia (Example 1); conditions: in words
# Text: The left tibia was removed for bone ash determination on the fat-free bone.
# [6] = 9-day body weight, feed consumption and gain:feed (Example 1); conditions: in words; for nine day weight: Example 1
# Procedure: Newly hatched Petersen X Arbor Acre cockerels obtained from a commercial hatchery were used. Animals were housed in electrically heated Petersime battery brooders with wire-mesh floors located in a room in which the temperature was maintained at 22° C., fluorescent lights were on 24 hours each day in the room and the cages, and sunlight was present during the day from large windows. No attempt was made to limit the natural production of vitamin D3. Feed and water were available to the chickens at all times.
# (§3) Ten newly hatched birds were randomly placed in each section of the Petersime batteries until the birds were nine days old. The measurements described below were calculated on a pen basis; all statistical analyses were conducted on pen averages. Blood samples were taken by cardiac puncture with heparinized syringes from one randomly chosen bird from each pen on the ninth day before weighing the birds.
# At nine days of age, pen body weights were obtained for all birds and their feed consumption was recorded. […] Briefly, using a three week old chicken as the reference animal, a score of zero indicates normal cartilage which is narrow with little irregularities. […] Deep irregularities are apparent. A score of three indicates a large mass of cartilage in the proximal end of the tibia. The birds were also scored for phosphorus deficient rickets at the same time they were scored for tibial dyschondroplasia. Chickens which had normal proliferating prehypertrophied zone and a lengthened metaphyseal primary spongiosa were classified as phosphorus deficient rickets. The left tibia was removed for bone ash determination on the fat-free bone.
# phytate phosphorus = experiment: phytate (IP4, IP5, IP6) in feces, ferric chloride and HPLC procedures; assay type: in vivo, chicken (Petersen X Arbor Acre cockerels)
# [7] = test system: phosphorus deficient rickets; experiment: phosphorus deficient rickets (Example 1); conditions: in words, Exp 1
# Text: The birds were also scored for phosphorus deficient rickets at the same time they were scored for tibial dyschondroplasia. Chickens which had normal proliferating prehypertrophied zone and a lengthened metaphyseal primary spongiosa were classified as phosphorus deficient rickets.
# Ri is an abbreviation for rickets incidence.
# [8] = blood plasma total calcium and dialyzable phosphorus; conditions: in words, Exp 1
# Procedure: as §3
# [9] = test system: conversion of 25(OH)D3 to 1,25(OH)2 D3; conditions: chickens made acidotic; cited from earlier work
# [10] = Study 1, with disulfiram 30 mg/kg feed
# [11] = Study 2, with disulfiram 30 mg/kg feed
# [12] = basal diet, D3 […], derivatives 10 μg/kg feed
# [13] = with disulfiram 30 mg/kg feed, D3 […], derivatives 10 μg/kg feed
# [14] = Study 3, D3 […], derivatives 10 μg/kg feed
# 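For #3/No. in this document: score 3 means a large cartilage mass in the proximal tibia.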
# 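For #3/total in this document: score 3 means a large cartilage mass in the proximal tibia.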
# 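For % #3 in this document: score 3 means a large cartilage mass in the proximal tibia.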
# 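For % N3 in this document: score 3 means a large cartilage mass in the proximal tibia.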
smiles,measurement,setting,value
"C=C1/C(=C\C=C2/CCC[C@]3(C)[C@@H]([C@H](C)CCCC(C)(C)O)CC[C@@H]23)C[C@@H](O)C[C@@H]1O [1,25-(OH)2 D3, 1,25-dihydroxycholecalciferol]",16 Day wt.,"[1]; Study 1, basal diet",421
same,Gain:Feed,"[1]; Study 1, basal diet",.670
same,16 Day wt.,[1]; [10],426
same,Gain:Feed,[1]; [10],.701
same,16 day wt,"[1]; Study 2, basal diet",361
same,Gain:Feed,"[1]; Study 2, basal diet",.661
same,16 day wt,[1]; [11],377
same,Gain:Feed,[1]; [11],.684
same,16 Day Wt.,[1]; Study 3,421
same,Gain/feed,[1]; Study 3,.66
same,16 Day wt.,[1]; Study 4,355
same,Gain/feed,[1]; Study 4,.652
same,#3/total,"tibial dyschondroplasia [2]; Study 1, basal diet",1/29
same,#3/total,tibial dyschondroplasia [2]; [10],4/30
same,#3/total,"tibial dyschondroplasia [2]; Study 2, basal diet",2/30
same,#3/total,tibial dyschondroplasia [2]; [11],6/30
same,#3/No.,tibial dyschondroplasia [2]; Study 3,5/58
same,% N2 + 3,tibial dyschondroplasia [2]; Study 3,16%
same,% N3,tibial dyschondroplasia [2]; Study 3,9%
same,#3/total,tibial dyschondroplasia [2]; Study 4,4/52
same,% #3,tibial dyschondroplasia [2]; Study 4,8%
same,bone ash,bone ash [3],increases bone ash
same,^47 Ca intercept,^47 Ca retention; [12],84
same,^47 Ca slope,^47 Ca retention; [12],-2.85
same,^47 Ca intercept,^47 Ca retention; [13],70
same,^47 Ca slope,^47 Ca retention; [13],-2.11
same,Ca^47 Ret.,^47 Ca retention; [14],78
same,Ca^47 slope,^47 Ca retention; [14],-.72
same,dietary ^47 Ca absorbed,"^47 Ca retention; in words, Example 2",significantly more dietary ^47 Ca absorbed
same,"half-life, or retention, of the calcium","^47 Ca retention; in words, Example 2",increasing the half-life
same,incidence of tibial dyschondroplasia,"tibial dyschondroplasia [4]; 20 ng/day, Edwards, J. Nutr. 114:1001 (1984)",no effect on the incidence of tibial dyschondroplasia
same,bone ash,bone ash [5],increased
same,nine day weight,[6],increased
"O.O=P([O-])([O-])O.[Na+].[Na+] [P, Na2 HPO4 H2 O]",Feces excreted,phytate phosphorus; in vivo,451 and 602 and 606
same,"IP5 excretion, percent of total phytin phosphorus",phytate phosphorus; in vivo,5.76% and 2.70% and 6.87%
same,"IP6 excretion, percent of total phytin phosphorus",phytate phosphorus; in vivo,46.92% and 37.06% and 46.00%
same,IP6 phytate phosphorus in feces by HPLC,phytate phosphorus; in vivo,3.99 mg/g and 3.03 mg/g and 3.68 mg/g
same,"Phytate phosphorus retention, FeCl3",phytate phosphorus; in vivo,47 and 68 and 51
same,"Phytate phosphorus retention, HPLC",phytate phosphorus; in vivo,47 and 60 and 46
same,Phytin phosphorus retained (100 - total excreted),phytate phosphorus; in vivo,46.7% and 59.5% and 45.9%
same,Total phytate phosphorus in feces by HPLC,phytate phosphorus; in vivo,4.54 mg/g and 3.32 mg/g and 4.35 mg/g
same,Total phytin phosphorus excreted,phytate phosphorus; in vivo,53.4% and 40.6% and 54.4%
same,amount of phosphorus in the feces,"phytate phosphorus; in words, Exp 1",approximately the same
same,tibial dyschondroplasia (effect of dietary factor),"tibial dyschondroplasia [4]; chickens, dietary level",accentuate the development of the lesions
same,bone ash,bone ash [5],increased
same,incidence of phosphorus-deficient rickets,[7],decreased
same,blood plasma phosphorus,[8],increased
same,nine day weight,[6],increased nine day weights
same,gain:feed ratio,[6]; Exp 1,increased
Cl.N [ammonium chloride],"conversion of 25(OH)D3 to 1,25(OH)2 D3",[9],reduced conversion

# — patent US5516525A, “Vitamin D derivative feed compositions and methods of use” (University of Georgia Research Foundation, Inc., priority 1994, dated 1996)
